Measurements: article PMC5199340, “RET Functions as a Dual-Specificity Kinase that Requires Allosteric Inputs from Juxtamembrane Elements” (Cell Reports, 2016)

Experiments:
RET [1] = molecular target: T1, RET (Homo sapiens, UniProt P07949); test: isothermal titration calorimetry (ITC); format: binding
T1 construct: RET JM-KD (residues 661–1012)
T1 sequence (P07949 661-1012): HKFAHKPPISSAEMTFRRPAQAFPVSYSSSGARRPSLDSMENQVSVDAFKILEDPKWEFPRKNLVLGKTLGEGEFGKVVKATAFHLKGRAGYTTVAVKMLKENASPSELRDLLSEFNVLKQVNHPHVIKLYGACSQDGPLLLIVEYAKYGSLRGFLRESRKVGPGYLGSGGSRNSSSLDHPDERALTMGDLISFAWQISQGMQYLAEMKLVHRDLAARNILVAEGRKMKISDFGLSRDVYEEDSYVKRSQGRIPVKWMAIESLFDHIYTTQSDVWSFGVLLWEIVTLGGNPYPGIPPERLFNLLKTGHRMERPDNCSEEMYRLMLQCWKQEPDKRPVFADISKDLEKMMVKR

RET [2] = molecular target: T2, RET (Homo sapiens, UniProt P07949); test: X-ray crystal structures ([…] Å and […] Å); format: binding
T2 construct: RET JM-KD (residues 659–1013), phosphorylated (Y809, Y905, S909, Y928)
T2 sequence (P07949 659-1013): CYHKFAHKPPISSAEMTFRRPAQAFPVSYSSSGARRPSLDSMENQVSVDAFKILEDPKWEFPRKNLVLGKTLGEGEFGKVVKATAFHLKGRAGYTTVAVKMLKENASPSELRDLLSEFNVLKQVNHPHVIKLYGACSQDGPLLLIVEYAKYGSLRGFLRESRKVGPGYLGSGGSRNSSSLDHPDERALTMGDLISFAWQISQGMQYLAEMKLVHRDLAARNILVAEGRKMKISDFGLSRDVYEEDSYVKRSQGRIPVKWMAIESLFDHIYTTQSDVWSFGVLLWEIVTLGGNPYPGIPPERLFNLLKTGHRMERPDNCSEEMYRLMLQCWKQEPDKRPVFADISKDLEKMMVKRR

SMILES | Kd (RET [1]) | X-ray crystal structures (2.95 Å and 3.3 Å) (RET [2])
Nc1ncnc2c1ncn2[C@@H]1O[C@H](COP(=O)(O)OP(=O)(O)OP(=O)(O)O)[C@@H](O)[C@H]1O [ATP] | 37.5 ± 3.1 µM | –
Cc1ccc(-c2nn(C(C)(C)C)c3ncnc(N)c23)cc1 [PP1] | – | Both crystal structures contained the PP1 tyrosine kinase inhibitor in the nucleotide-binding pocket
